Key:
[1] = Solubility of BP in solvents; type: physicochemical
Propionibacterium acnes = settings: versus clindamycin or erythromycin; Leyden 2001; cited from earlier work
[2] = water and most dermatologically safe solvents; cited from earlier work

In the case of O=C(OOC(=O)c1ccccc1)c1ccccc1 [BP, benzoyl peroxide], the “Solubility of BP in absolute alcohol” value [1] is listed as “poor”, the “Effectiveness in killing the bacteria responsible for causing acne” value (Propionibacterium acnes) is listed as “more effective than either clindamycin or erythromycin” and the “Solubility of BP in water” value [2] is listed as “virtually insoluble”.

Reference: patent US8128962B2, “Liquid compositions containing solubilized benzoyl peroxide, means for applying same and methods of treatment using same” (priority 2007, dated 2012)
